In patent US4251655A, “Substituted N-iminomethylpiperidines” (McNeilab, Inc., priority 1979, dated 1981):
Counter-ions that a name gives are not always drawn. Like-named read-outs stand apart in the source and are kept apart here.

Columns and labels:
gastric acid secretion [1] = test: Inhibition of gastric acid secretion (Total Acid Output) in rats; antisecretory activity; type: in vivo, Female Sprague-Dawley rats; conditions: for inhibition in vivo at 20 mg/kg: read-out: Percent Inhibition at 20 mg/kg id; for ED50: 1 h, read-out: ED50 (dose required to produce an average of 50% inhibition in Total Acid Output versus controls)
Description: The compounds of the invention are useful for inhibition of gastric acid secretion as measured by the following test. Female Sprague-Dawley rats are fasted twenty-four hours before testing and are given water ad libidum while being kept in individual cages. On the day of testing, the rats are weighed and are selected so that the rats in each test weigh within a range of ± 20 grams.
Surgery is carried out under light ether anesthesia. As soon as the rat is anesthetized its teeth are removed and a mid-line incision is made on the abdomen about 11/2 inches in length and the stomach and duodenum are exposed. If at this point the stomach is filled with food or fecal material, the rat is discarded. If the condition of the stomach is acceptable, a purse string stitch is placed on the fundic portion of the stomach with a suture, taking care not to pierce any blood vessels in the area. A small nick is then made into the stomach in the center of the purse string, and a cannula, consisting of a small vinyl tube with a flange on one end, is put into the stomach, and the purse string stitch is closed tightly around the flange. The test compound is administered either intraduodonally (i.d.) immediately after surgery or orally (p.o.) one hour prior to surgery at doses generally ranging from about 0.25 to about 160 mg/kg in a volume of 0.5 ml/100 grams rat. Control rats receive the test vehicle, 0.5% aqueous methyl cellulose.
After the surgery and (in the case of i.d. administration) after administration of the test compound, the abdominal wall and skin are closed simultaneously with three or four 18 mm wound clips and a collecting tube is placed on the cannula. Each rat is then placed in a box in which a longitudinal slit has been made to allow the cannula to hand freely and to allow the rat to move about unencumbered. After the rat has been allowed to stabilize for thirty minutes, the collection tube on the cannula is discarded and replaced with a clean tube to receive the gastric juice. Collections are made at one hour. At the end of the study, the cannula is removed and the rat is sacrificed.
The sample of gastric contents collected is drained into a centrifuge tube and centrifuged to pack down the sediment. The volume is read and a 1 ml aliquot of the supernatant is put into a beaker containing 10 ml distilled water and is titrated to pH7 using 0.01 N sodium hydroxide. Results are determined for Volume, Titratable Acid and Total Acid Output, where Volume equals total ml of gastric juice minus sediment; Titratable Acid (meg/1) equals amount of 0.01 N sodium hydroxide needed to titrate the acid to pH7; and Total Acid Output equals Titratable Acid times Volume. Results are reported as the ED50 dose (mg/kg required to produce an average of 50% inhibition in Total Acid Output versus controls in all the animals tested for a particular compound) and as percent inhibition.
Following the test procedure previously described, the following compounds were tested for their antisecretory activity. The ED50 values for p.o. administration and the percent inhibition for i.d. administration at 20 mg/kg are tabulated below (R1 '=H except where noted): […]

gastric acid secretion [2] = test: as above; type: in vivo, Female Sprague-Dawley rats; conditions: rat; for ED50: ip, intraperitoneally (footnote ++), read-out: ED50 (compound administered intraperitoneally)
[3] = rat, po, one hour prior to surgery

SMILES | inhibition in vivo at 20 mg/kg (gastric acid secretion [1]; rat, id, 20 mg/kg) | ED50 (gastric acid secretion [1]; [3]) | further results
N=CN1CCCC(C(c2ccccc2)c2ccccc2)C1 (stereo not shown) | 68% | – | ED50 (gastric acid secretion [2]): 7 mg/kg
CCCCCCCCN=CN1CCCC(C(c2ccccc2)c2ccccc2)C1 (stereo not shown) | 92.2% | 18.3 mg/kg | –
N=CN1CCC(C(c2ccccc2)c2ccc(Cl)cc2)CC1 (stereo not shown) | 100% | 2.32 mg/kg | –
CCCCCCCCN=CN1CCC(C(c2ccccc2)c2ccc(C)cc2)CC1 (stereo not shown) | 73% | – | –
COc1ccc(C(c2ccccc2)C2CCN(C=N)CC2)cc1 (stereo not shown) | 100% | 12.1 mg/kg | –
CCCCCCCCN=CN1CCC(C(O)(c2ccccc2)c2ccccc2)CC1 | – | – | ED50 (gastric acid secretion [2]): 5 mg/kg
C(=NC12CC3CC(CC(C3)C1)C2)N1CCC(C(c2ccccc2)c2ccccc2)CC1 | 0% | 37 mg/kg | % inhibition at 80 mg/kg i.d. (gastric acid secretion [2]; i.d., 80 mg/kg (footnote)): 52%
C#CCN=CN1CCC(C(c2ccccc2)c2ccccc2)CC1 | 100% | 6.07 mg/kg | –
C=CCN=CN1CCC(C(c2ccccc2)c2ccccc2)CC1 | 100% | 10.2 mg/kg | –
CCCCCCCCC=CCCCCCCCCN=CN1CCC(C(c2ccccc2)c2ccccc2)CC1 | 78.9% | 66 mg/kg | –
CC(C)N=CN1CCC(C(c2ccccc2)c2ccccc2)CC1 | 96% | 9.8 mg/kg | –
CCCCCCCN=CN1CCC(C(c2ccccc2)c2ccccc2)CC1 | 72% | 11.6 mg/kg | –
Clc1ccc(CN=CN2CCC(C(c3ccccc3)c3ccccc3)CC2)cc1 | 94% | 20.7 mg/kg | –
COc1ccc(CN=CN2CCC(C(c3ccccc3)c3ccccc3)CC2)cc1 | 63% | < 40 mg/kg | –
C(=NCCc1ccccc1)N1CCC(C(c2ccccc2)c2ccccc2)CC1 | 100% | 3.7 mg/kg | –
CCCCCCCCCCCCN=CN1CCC(C(c2ccccc2)c2ccccc2)CC1.O=C(O)/C=C/C(=O)O [4-(Diphenylmethyl)-1-N-(n-dodecyliminomethyl)piperidine fumarate] | 80% | 53 mg/kg | –
CCCCCCCCN=C(C)N1CCC(C(c2ccccc2)c2ccccc2)CC1.[O-][Cl+3]([O-])([O-])O [4-(Diphenylmethyl)-1-[1-(octylimino)ethyl]-piperidine Monoperchlorate] | – | – | ED50 (gastric acid secretion [1]; Rattus norvegicus, po): 14 mg/kg; inhibition in vivo at 20 mg/kg (gastric acid secretion [1]; Rattus norvegicus): 98%
CCCCCCCCN=CN1CCC(C(c2ccccc2)c2ccc(O)cc2)CC1 (stereo not shown) [4-[(4-hydroxyphenyl)phenylmethyl]-1-[(octylimino)methyl]piperidine] | – | – | ED50 (gastric acid secretion [2]): 2 mg/kg

SMILES | inhibition in vivo at 20 mg/kg (gastric acid secretion [1]; rat, id, 20 mg/kg) | ED50 (gastric acid secretion [1]; [3]) | further results
CCCCCCCCN=CN1CCC(C(c2ccccc2)c2ccc(OC)cc2)CC1 (stereo not shown) [4-[(4-methoxyphenyl)phenylmethyl]-1-[(octylimino)methyl]piperidine] | 62% | 16.9 mg/kg | –
N=CN1CCCCC1 [N-iminomethylpiperidine] | 0% | – | inhibition of gastric acid secretion at doses four times or greater than those at which the subject compounds are active (gastric acid secretion [1]; doses four times or greater than active doses of subject compounds): does not inhibit gastric acid secretion; inhibition of gastric acid secretion at a dose of 100 mg/kg p.o. (gastric acid secretion [1]; rat, p.o., 100 mg/kg): no inhibition whatsoever; ED50 (mg/kg po): result in words (gastric acid secretion [1]; rat, po, at 80 (mg/kg)): Inactive; inhibition of gastric acid secretion at 80 mg/kg i.d. (gastric acid secretion [2]; i.d., 80 mg/kg): no inhibition whatsoever
CCCCCCCCN=CN1CCC(=C(c2ccccc2)c2ccccc2)CC1 [R1,A=benzhydrylidene; R2=H; R3=n-octyl] | 68.2% | 0.625 mg/kg | –
CCCCCCCCN=CN1CCC(C2c3ccccc3-c3ccccc32)CC1 [R1=9-fluorenyl; A=H; R2=H; R3=n-octyl] | 48% | 15.9 mg/kg | –
N=CN1CCC(Cc2ccccc2)CC1 [R1=benzyl; A=H; R2=H; R3=H] | 98% | 114 mg/kg | –
Cl.N=CN1CCC(C(c2ccccc2)c2ccccc2)CC1.O [R1=diphenylmethyl; A=H; R2=H; R3=H, 4-Diphenylmethyl-1-iminomethylpiperidine hydrochloride hydrate] | 100% | 0.7 mg/kg | –
C(=NCc1ccccc1)N1CCC(C(c2ccccc2)c2ccccc2)CC1 [R1=diphenylmethyl; A=H; R2=H; R3=benzyl] | 100% | 3.3 mg/kg | –
C(=NCCCCc1ccccc1)N1CCC(C(c2ccccc2)c2ccccc2)CC1 [R1=diphenylmethyl; A=H; R2=H; R3=drawing 19] | 82% | 8.1 mg/kg | –
CCN=CN1CCC(C(c2ccccc2)c2ccccc2)CC1 [R1=diphenylmethyl; A=H; R2=H; R3=ethyl, 4-(Diphenylmethyl)-1-N-ethyliminomethyl-piperidine oxalate hemihydrate] | 100% | 4.3 mg/kg | –
CCCCN=CN1CCC(C(c2ccccc2)c2ccccc2)CC1 [R1=diphenylmethyl; A=H; R2=H; R3=n-butyl] | 100% | 8.6 mg/kg | –
CCCCCCCCCCN=CN1CCC(C(c2ccccc2)c2ccccc2)CC1 [R1=diphenylmethyl; A=H; R2=H; R3=n-decyl] | 79% | 8.2 mg/kg | –
CCCCCCN=CN1CCC(C(c2ccccc2)c2ccccc2)CC1 [R1=diphenylmethyl; A=H; R2=H; R3=n-hexyl] | 96% | 8.7 mg/kg | –
CCCCCCCCCN=CN1CCC(C(c2ccccc2)c2ccccc2)CC1 [R1=diphenylmethyl; A=H; R2=H; R3=n-nonyl] | 93% | 19.6 mg/kg | –
CCCCCCCCN=CN1CCC(C(c2ccccc2)c2ccccc2)CC1.O.O=C(O)/C=C/C(=O)O [R1=diphenylmethyl; A=H; R2=H; R3=n-octyl, 4-(Diphenylmethyl)-1-[(octylimino)methyl]piperidine Fumarate Hydrate] | 64% | 9.8 mg/kg | –
CCC(=N)N1CCC(C(c2ccccc2)c2ccccc2)CC1 [R1=diphenylmethyl; A=H; R2=ethyl; R3=H] | 75% | > 40 mg/kg | –
N=CN1CCC(c2ccccc2)CC1 [R1=phenyl; A=H; R2=H; R3=H] | 77% | ~40 mg/kg | –
CC(=O)C1(c2ccccc2)CCN(C=N)CC1 [R1=phenyl; A=drawing 20; R2=H; R3=H] | – | – | inhibition in vivo at 20 mg/kg (gastric acid secretion [1]; Rattus norvegicus): 71%
